# Measurements as given in ChEMBL document CHEMBL5608184, “Discovery and mechanistic insights into thieno[3,2-d]pyrimidine and heterocyclic fused pyrimidines inhibitors targeting tubulin for cancer therapy” (Eur J Med Chem, 2024).
# Assays:
# SK-OV-3 [1] = test: Induction of cell cycle arrest at G2/M phase in human SK-OV-3 cells at 0.625 nM incubated for 24 hrs by PI staining based flow cytometry (reference value: 30.13 %); format: functional
# SK-OV-3 [2] = test: Induction of cell cycle arrest at G2/M phase in human SK-OV-3 cells at 1.25 nM incubated for 24 hrs by PI staining based flow cytometry (reference value: 30.13 %); format: functional
# SK-OV-3 [3] = test: Induction of cell cycle arrest at G2/M phase in human SK-OV-3 cells at 5 nM incubated for 24 hrs by PI staining based flow cytometry (reference value: 30.13 %); format: functional
# SK-OV-3 [4] = test: Induction of apoptosis in human SK-OV-3 cells assessed as viable cells at 0.625 nM incubated for 48 hrs by Annexin V-APC-A/7-AAD-A staining based flow cytometry (reference value: 97.50 %); format: functional; settings: read-out: Activity
# SK-OV-3 [5] = test: Induction of apoptosis in human SK-OV-3 cells assessed as early apoptotic cells at 0.625 nM incubated for 48 hrs by Annexin V-APC-A/7-AAD-A staining based flow cytometry (reference value: 1.10 %); format: functional
# SK-OV-3 [6] = test: Induction of apoptosis in human SK-OV-3 cells assessed as viable cells at 1.25 nM incubated for 48 hrs by Annexin V-APC-A/7-AAD-A staining based flow cytometry (reference value: 97.50 %); format: functional; settings: read-out: Activity
# SK-OV-3 [7] = test: Induction of apoptosis in human SK-OV-3 cells assessed as early apoptotic cells at 1.25 nM incubated for 48 hrs by Annexin V-APC-A/7-AAD-A staining based flow cytometry (reference value: 1.10 %); format: functional
# SK-OV-3 [8] = test: Induction of apoptosis in human SK-OV-3 cells assessed as late apoptotic cells at 1.25 nM incubated for 48 hrs by Annexin V-APC-A/7-AAD-A staining based flow cytometry (reference value: 1.20 %); format: functional
# SK-OV-3 [9] = test: Induction of apoptosis in human SK-OV-3 cells assessed as necrotic cells at 1.25 nM incubated for 48 hrs by Annexin V-APC-A/7-AAD-A staining based flow cytometry (reference value: 0.21 %); format: functional
# SK-OV-3 [10] = test: Induction of apoptosis in human SK-OV-3 cells assessed as viable cells at 2.5 nM incubated for 48 hrs by Annexin V-APC-A/7-AAD-A staining based flow cytometry (reference value: 97.50 %); format: functional; settings: read-out: Activity
# SK-OV-3 [11] = test: Induction of apoptosis in human SK-OV-3 cells assessed as late apoptotic cells at 2.5 nM incubated for 48 hrs by Annexin V-APC-A/7-AAD-A staining based flow cytometry (reference value: 1.20 %); format: functional
# SK-OV-3 [12] = test: Induction of apoptosis in human SK-OV-3 cells assessed as necrotic cells at 2.5 nM incubated for 48 hrs by Annexin V-APC-A/7-AAD-A staining based flow cytometry (reference value: 0.21 %); format: functional
# SK-OV-3 [13] = test: Induction of apoptosis in human SK-OV-3 cells assessed as early apoptotic cells at 5 nM incubated for 48 hrs by Annexin V-APC-A/7-AAD-A staining based flow cytometry (reference value: 1.10 %); format: functional
# SK-OV-3 [14] = test: Induction of apoptosis in human SK-OV-3 cells assessed as late apoptotic cells at 5 nM incubated for 48 hrs by Annexin V-APC-A/7-AAD-A staining based flow cytometry (reference value: 1.20 %); format: functional
# SK-OV-3 [15] = test: Induction of apoptosis in human SK-OV-3 cells assessed as necrotic cells at 5 nM incubated for 48 hrs by Annexin V-APC-A/7-AAD-A staining based flow cytometry (reference value: 0.21 %); format: functional
# SK-OV-3 [16] = test: Inhibition of cell migration in human SK-OV-3 cells assessed as relative wound density at 1.25 nM incubated for 24 hrs by wound healing assay (reference value: 61.61 %); format: functional; design: scale not given: the % may be the effect or the level left
# SK-OV-3 [17] = test: Inhibition of cell migration in human SK-OV-3 cells assessed as relative wound density at 2.5 nM incubated for 24 hrs by wound healing assay (reference value: 61.61 %); format: functional; design: scale not given: the % may be the effect or the level left
# SK-OV-3 [18] = test: Inhibition of cell migration in human SK-OV-3 cells assessed as relative wound density at 5 nM incubated for 24 hrs by wound healing assay (reference value: 61.61 %); format: functional; design: scale not given: the % may be the effect or the level left
# Tubulin = test: Binding affinity to CM5-chip immobilized tubulin (unknown origin) assessed as dissociation constant by SPR analysis; format: protein-complex assay, Homo sapiens
# SK-OV-3 [19] = test: Induction of cell cycle arrest at G2/M phase in human SK-OV-3 cells at 5 nM incubated for 24 hrs by PI staining based flow cytometry (reference value: 29.73 %); format: functional
# SK-OV-3 [20] = test: Induction of apoptosis in human SK-OV-3 cells assessed as viable cells at 0.625 nM incubated for 48 hrs by Annexin V-APC-A/7-AAD-A staining based flow cytometry (reference value: 97.17 %); format: functional; settings: read-out: Activity
# SK-OV-3 [21] = test: Induction of apoptosis in human SK-OV-3 cells assessed as early apoptotic cells at 0.625 nM incubated for 48 hrs by Annexin V-APC-A/7-AAD-A staining based flow cytometry (reference value: 1.12 %); format: functional
# SK-OV-3 [22] = test: Induction of apoptosis in human SK-OV-3 cells assessed as late apoptotic cells at 0.625 nM incubated for 48 hrs by Annexin V-APC-A/7-AAD-A staining based flow cytometry (reference value: 1.22 %); format: functional
# SK-OV-3 [23] = test: Induction of apoptosis in human SK-OV-3 cells assessed as necrotic cells at 0.625 nM incubated for 48 hrs by Annexin V-APC-A/7-AAD-A staining based flow cytometry (reference value: 0.48 %); format: functional
# SK-OV-3 [24] = test: Induction of apoptosis in human SK-OV-3 cells assessed as early apoptotic cells at 1.25 nM incubated for 48 hrs by Annexin V-APC-A/7-AAD-A staining based flow cytometry (reference value: 1.12 %); format: functional
# SK-OV-3 [25] = test: Induction of apoptosis in human SK-OV-3 cells assessed as early apoptotic cells at 2.5 nM incubated for 48 hrs by Annexin V-APC-A/7-AAD-A staining based flow cytometry (reference value: 1.12 %); format: functional
# SK-OV-3 [26] = test: Induction of apoptosis in human SK-OV-3 cells assessed as necrotic cells at 2.5 nM incubated for 48 hrs by Annexin V-APC-A/7-AAD-A staining based flow cytometry (reference value: 0.48 %); format: functional
# SK-OV-3 [27] = test: Induction of apoptosis in human SK-OV-3 cells assessed as viable cells at 5 nM incubated for 48 hrs by Annexin V-APC-A/7-AAD-A staining based flow cytometry (reference value: 97.17 %); format: functional; settings: read-out: Activity
# SK-OV-3 [28] = test: Induction of apoptosis in human SK-OV-3 cells assessed as early apoptotic cells at 5 nM incubated for 48 hrs by Annexin V-APC-A/7-AAD-A staining based flow cytometry (reference value: 1.12 %); format: functional
# SK-OV-3 [29] = test: Induction of apoptosis in human SK-OV-3 cells assessed as necrotic cells at 5 nM incubated for 48 hrs by Annexin V-APC-A/7-AAD-A staining based flow cytometry (reference value: 0.48 %); format: functional
# SK-OV-3 [30] = test: Inhibition of cell migration in human SK-OV-3 cells assessed as relative wound density at 0.625 nM incubated for 24 hrs by wound healing assay (reference value: 74.53 %); format: functional; design: scale not given: the % may be the effect or the level left
# SK-OV-3 [31] = test: Inhibition of cell migration in human SK-OV-3 cells assessed as relative wound density at 1.25 nM incubated for 24 hrs by wound healing assay (reference value: 74.53 %); format: functional; design: scale not given: the % may be the effect or the level left
smiles,measurement,setting,value
COc1ccc(N(C)c2nc(Cl)nc3ccn(C)c23)cc1,Activity,SK-OV-3 [1],32.3%
same,Activity,SK-OV-3 [2],34.62%
same,Activity,SK-OV-3 [3],87.47%
same,viability at 0.000625 µM,SK-OV-3 [4],96.2%
same,Activity,SK-OV-3 [5],1.53%
same,viability at 0.00125 µM,SK-OV-3 [6],94.1%
same,Activity,SK-OV-3 [7],2.83%
same,Activity,SK-OV-3 [8],2.48%
same,Activity,SK-OV-3 [9],0.56%
same,viability at 0.0025 µM,SK-OV-3 [10],75.9%
same,Activity,SK-OV-3 [11],2.27%
same,Activity,SK-OV-3 [12],1.17%
same,Activity,SK-OV-3 [13],39.84%
same,Activity,SK-OV-3 [14],3.86%
same,Activity,SK-OV-3 [15],2.25%
same,Activity,SK-OV-3 [16],54.94%
same,Activity,SK-OV-3 [17],6.33%
same,Activity,SK-OV-3 [18],12.11%
COc1ccc2c(c1)NC(=O)CN2c1nc(Cl)nc2ccsc12,Kd,Tubulin,24.4 µM
same,Activity,SK-OV-3 [19],88.67%
same,viability at 0.000625 µM,SK-OV-3 [20],81%
same,Activity,SK-OV-3 [21],15.61%
same,Activity,SK-OV-3 [22],2.48%
same,Activity,SK-OV-3 [23],0.91%
same,Activity,SK-OV-3 [24],38.42%
same,Activity,SK-OV-3 [25],39.07%
same,Activity,SK-OV-3 [26],2.32%
same,viability at 0.005 µM,SK-OV-3 [27],62.1%
same,Activity,SK-OV-3 [28],31.24%
same,Activity,SK-OV-3 [29],2.06%
same,Activity,SK-OV-3 [30],67.94%
same,Activity,SK-OV-3 [31],33.15%
